Assay results from patent US20160304461A1, “QUINOLONE COMPOUND AND PHARMACEUTICAL COMPOSITION” (OTSUKA PHARMACEUTICAL CO., LTD., priority 2007, published 2016).

Columns and labels:
[1] = test system: human neuroblastoma cell lines SH-SY5Y; test: Improvement of mitochondrial dysfunction in MPP+-treated SH-SY5Y cells (Alamar Blue mitochondrial oxidation reduction activity); type: cell-based; conditions: SH-SY5Y cells in 1.5 mM MPP+ medium, relative to cells in DMSO alone = 100%, read-out: Fluorescence Intensity (%); for activity at 0.01 µg/mL: test compound 0.01 μg/ml; for activity at 0.03 µg/mL: test compound 0.03 μg/ml; for activity at 0.1 µg/mL: test compound 0.1 μg/ml; for activity at 0.3 µg/mL: test compound 0.3 μg/ml; for activity at 1 µg/mL: test compound 1 μg/ml
Method: Evaluation of Improvement of Mitochondrial Dysfunction using Human Neuroblastoma Cell Lines SH-SY5Y Treated with 1-methyl-4-phenylpyridinium (MPP^+)
In human neuroblastoma cell lines SH-SY5Y in which mitochondrial activity was injured by MPP^+ treatment (Bollimuntha S. et al., J Biol Chem, 280, 2132-2140 (2005) and Shang T. et al., J Biol Chem, 280, 34644-34653 (2005)), improvement of the mitochondrial dysfunction was evaluated on the basis of the measurement value of the mitochondrial oxidation reduction activity using Alamar Blue fluorescent dye after the compound addition (Nakai M. et. al, Exp Neurol, 179, 103-110 (2003)).
The human neuroblastoma cell lines SH-SY5Y were cultured in Dulbecco's Modified Eagle's Medium containing 10% fetal bovine serum (DMEM containing 50 units/ml penicillin and 50 μg/ml streptomycin as antibiotics) at 37° C. in the presence of 5% carbon dioxide. Cells were scattered on a poly-D-lysine-coated 96-well black plate at a concentration of 3-6×10^4 cells/cm^2 (medium amount: 100 μl/well), and cultured in the above medium for two days. Further, the medium was changed to a DMEM containing a 1% N2 supplement (N2-DMEM) or to a medium (100 μl/well) in which 1.5 mM MPP^+ was dissolved. The cells were cultured therein for 39 to 48 hours, and then subjected to a mitochondrial oxidation reduction activity measurement system. A sample compound that had been previously dissolved in dimethyl sulfoxide (DMSO) was diluted with N2-DMEM, and added in a volume of 10 μl/well 24 hours before the activity measurement (final compound concentration: 0.01 to 1 μg/ml).
After removal of the medium by suction, a balanced salt solution containing 10% Alamar Blue (154 mM sodium chloride, 5.6 mM potassium chloride, 2.3 mM calcium chloride, 1.0 mM magnesium chloride, 3.6 mM sodium bicarbonate, 5 mM glucose, 5 mM HEPES, pH 7.2) was added in a volume of 100 μl/well, and reacted in an incubator at 37° C. for 1 hour. The fluorescent intensity was detected using a fluorescence detector (a product of Hamamatsu Photonics K.K., excitation wavelength 530 nm, measurement wavelength 580 nm) to thereby measure the mitochondrial oxidation reduction activity.
The fluorescent intensity of the well of the cells cultured in a medium containing MPP^+ and in each of the sample compounds was relatively evaluated based on a 100% fluorescent intensity of the well of the cells cultured in a medium containing DMSO alone (final concentration: 0.1%).

melting point [°C] | SMILES | activity at 0.01 µg/mL [1] [%] | activity at 0.03 µg/mL [1] [%] | activity at 0.1 µg/mL [1] [%] | activity at 0.3 µg/mL [1] [%] | activity at 1 µg/mL [1] [%]
123 to 125 | CCCOc1ccc(F)c2c(=O)c(-c3ccc(OC)cc3)cn(CC)c12 [Example 92, 1-Ethyl-5-fluoro-3-(4-methoxyphenyl)-8-propoxy-1H-quinolin-4-one] | 63 | 75 | 77 | 69 | 55
108 to 109 | CCCOc1ccc(F)c2c(=O)c(-c3ccc(OC)cc3)cn(CCOCC)c12 [Example 93, 1-(2-Ethoxyethyl)-5-fluoro-3-(4-methoxyphenyl)-8-propoxy-1H-quinolin-4-one] | 66 | 79 | 86 | 80 | 69
60 to 62 | CCCOc1ccc(F)c2c(=O)c(-c3ccc(OC)cc3)cn(CC3CC3)c12 [Example 94, 1-Cyclopropylmethyl-5-fluoro-3-(4-methoxyphenyl)-8-propoxy-1H-quinolin-4-one] | 56 | 67 | 69 | 59 | 41
181 to 184 | CCCOc1ccc(F)c2c(=O)c(-c3ccsc3CO)c[nH]c12 [Example 100, 5-Fluoro-3-(2-hydroxymethylthiophen-3-yl)-8-propoxy-1H-quinolin-4-one] | 56 | 56 | 71 | 73 | 84
